Read-outs that look alike come from different tables or passages of the source.
Columns and labels:
[1] = tested on: Plasmodium falciparum (Pf) D6; conditions: Pf D6 in vitro; cited from earlier work
[2] = tested on: Plasmodium falciparum (Pf) W2; conditions: Pf W2 in vitro; cited from earlier work
[3] = tested on: P. falciparum CQ-sensitive D10; assay: In vitro antimalarial assay (pLDH), Pf D10 strain; format: cell-based, Plasmodium falciparum; conditions: for IC50: read-out: D10 (CQ-S) Mean ± S.D. IC50; for Ratio IC50 cpd/IC50 DHA: D10 strain; for SI IC50WEHI-164/IC50 cpd: selectivity index versus D10 strain
Description: (§1) Compounds were dissolved in either water or DMSO and then diluted with medium to achieve the required concentrations (final DMSO concentration <1%, which is non-toxic to the parasite). […] Parasite growth was determined spectrophotometrically (OD650) by measuring the activity of the parasite lactate dehydrogenase (pLDH) according to a modification of the method of Makler in control and drug-treated cultures.
(§2) As a blank, uninfected RBCs were used for the antimalarial assays or media without cells for the cytotoxicity assays. The percent viability was plotted as a function of drug concentrations, and the curve fitting was obtained by nonlinear regression analysis using a four parameter logistic method (software Gen5 1.10 provided with the Synergy4 plate reader [Biotek]).

[4] = tested on: P. falciparum CQ-resistant W-2; assay: In vitro antimalarial assay (pLDH), Pf W-2 strain; format: cell-based, Plasmodium falciparum; conditions: for IC50: 72 h, read-out: W-2 (CQ-R) Mean ± S.D. IC50; for Ratio IC50 cpd/IC50 DHA: W-2 strain; for SI IC50WEHI-164/IC50 cpd: selectivity index versus W-2 strain
Description: as §1, §2

[5] = tested on: mouse fibrosarcoma cell line WEHI-164; assay: Cytotoxicity, MTT assay, WEHI-164; format: cell-based; conditions: read-out: WEHI-164 Mean ± S.D. IC50
[6] = tested on: myelogenous leukemia cell line K562; assay: Cytotoxicity, MTT assay, K562; format: cell-based, human; conditions: for IC50: Homo sapiens, K562, MTT assay conducted for 72 h, read-out: Mean (±S.D.) IC50 K562
Description: (§3) Selected compounds were carried forward for screening against the immortalized myelogenous leukemia, K562, human microvascular endothelial cells (HMEC-1) and fresh human fibroblasts HDF (Table 2) using the MTT assay, as above.
(§4) A long term microvascular endothelial cell line (HMEC-1) immortalized by SV 40 large T antigen was kindly provided by Dr. Francisco J. Candal, Center for Disease Control, Atlanta, GA, USA. […] Fibroblasts from skin biopsies were maintained in DMEM (EuroClone, Pero, Italy) supplemented with 10% fetal calf serum (HyClone, Logan, UT, USA), 2 mM glutamine, 100 U/mL of penicillin and 100 µg/mL of streptomycin.
(§5) Cells were then treated with serial dilutions of test compounds and cell proliferation evaluated using the MTT assay as previously described. […] All the tests were performed in triplicate at least three times.
as §2

[7] = tested on: human microvascular endothelial cells (HMEC-1); assay: Cytotoxicity, MTT assay, HMEC-1; format: cell-based; conditions: MTT assay conducted for 72 h, read-out: Mean (±S.D.) IC50 HMEC
Description: as §3, §4, §5, §2

[8] = tested on: fresh human dermal fibroblasts HDF; assay: Cytotoxicity, MTT assay, HDF; format: cell-based; conditions: Fibroblast, MTT assay conducted for 72 h, read-out: Mean (±S.D.) IC50 HDF
Description: as §3, §4, §5, §2

[9] = design: method as in earlier work; conditions: 28 (artemisone), 29 (DHA); cited from earlier work
[10] = human; cited from earlier work
[11] = tested on: different strains of Plasmodium falciparum (Pf); assay: In vitro antimalarial assay (pLDH), summary over different Pf strains; format: cell-based; conditions: for IC50: Plasmodium falciparum, range over D10 and W-2 strains, read-out: IC50 against different strains of Plasmodium falciparum; for selectivity index (SI) with respect to WEHI-164: WEHI-164 IC50 / antimalarial IC50, over the strains
Description: as §1, §2

[12] = CQ-sensitive strain, 72 h, pLDH readout
[13] = CQ-resistant strain, pLDH readout
[14] = Plasmodium falciparum, D10, 72 h, CQ-sensitive strain, 72 h, pLDH readout
[15] = Mus musculus, WEHI-164, 72 h, MTT, 72 h
[16] = Plasmodium falciparum, CQ-resistant strain, pLDH readout

Structure (SMILES)	IC50 [3, 12] [nM]	Ratio IC50 cpd/IC50 DHA [3]	SI IC50WEHI-164/IC50 cpd [3]	IC50 [4, 13] [nM]	Ratio IC50 cpd/IC50 DHA [4]	SI IC50WEHI-164/IC50 cpd [4]	IC50 ([5]; MTT, 72 h) [nM]	IC50 [6] [nM]	IC50 [8] [nM]	IC50 [3, 14] [nM]	IC50 [5, 15] [nM]	further results
CC1CCC2C(C)C(OC3OC(CO)C(O)C(O)C3O)OC3OC4(C)CCC1C32OO4 (centres unmarked) [Compound 12]												IC50 [1]: 29.4 nM; IC50 [2]: 79.7 nM
CC1CCC2C(C)C(N3CCN(C4OC(CO)C(O)C(O)C4O)CC3)OC3OC4(C)CCC1C32OO4 (centres unmarked) [Compound 18]	1.3 ± 0.1	0.38	215	1.2 ± 0.3	0.8	233	280 ± 80	810 ± 240	382000 ± 31200			IC50 [7]: 4410 ± 2290 nM
CC1CCC2C(C)C(N3CCN(C4OC(CO)C(O)C4O)CC3)OC3OC4(C)CCC1C32OO4 (centres unmarked) [Compound 26]	1.3 ± 0.8	0.38	161	0.82 ± 0.25	0.55	256	210 ± 10					
C[C@H]1[C@@H](O)O[C@@H]2O[C@@]3(C)CC[C@H]4[C@H](C)CC[C@@H]1[C@@]24OO3 [DHA 2, dihydroartemisinin, reference compound]								2760 ± 660	88700 ± 13300	3.4 ± 1.6	720 ± 140	IC50 [7]: 1160 ± 400 nM; elimination half-life [9]: ~ 1 h; plasma clearance [9]: ~ 5.4 L/h/kg; volume of distribution [9]: 7.7 L/kg; half-life of antimalarial activity [10]: ~ 3 h
CC1CCC2C(C)C(N3CCN(C4OC(CO)C(OC5OC(CO)C(O)C(O)C5O)C(O)C4O)CC3)OC3OC4(C)CCC1C32OO4 (centres unmarked) [Compound 21]		0.56	131		1.0	166		780 ± 150	534000 ± 9900	1.9 ± 1.1	250 ± 90	IC50 [4, 16]: 1.5 ± 0.5 nM; IC50 [7]: 2500 ± 800 nM
CC1CCC2C(C)C(N3CCNCC3)OC3OC4(C)CCC1C32OO4 (stereo not drawn) [Compound 10, 10α-(1-Piperazino)-10-deoxo-10-dihydroartemisinin]		0.41	107		0.73	136				1.4 ± 0.5	150 ± 10	IC50 [4, 16]: 1.1 ± 0.4 nM
CC1CCC2C(C)C(OC3OC(CO)C(O)C(O)C3O)OC3OC4(C)CCC1C32OO4 (centres unmarked) [Compound 11]												IC50 [1]: 272 nM; IC50 [2]: 76.3 nM
CC1CCC2C(C)C(N3CCN(C4OC(CO)C(O)C(O)C4O)CC3)OC3OC4(C)CCC1C32OO4 (centres unmarked) [Compound 19]	0.87 ± 0.25	0.26	195	0.71 ± 0.2	0.5	239	170 ± 30					IC50 [11]: 0.58 to 0.87 nM; selectivity index (SI) with respect to WEHI-164 [11]: > 195
CC1CCC2C(C)C(N3CCN(C4OC(CO)C(O)C4O)CC3)OC3OC4(C)CCC1C32OO4 (centres unmarked) [Compound 24]	4.8 ± 2.9	1.4	102	4.1 ± 3.2	2.7	119	490 ± 200	870 ± 50	389000 ± 8600			IC50 [7]: 2390 ± 1510 nM
CC1CCC2C(C)C(N3CCN(C4OC(CO)C(O)C4O)CC3)OC3OC4(C)CCC1C32OO4 (centres unmarked) [Compound 25]	0.66 ± 0.2	0.19	242	0.58 ± 0.3	0.39	275	160 ± 40					IC50 [11]: 0.58 to 0.87 nM; selectivity index (SI) with respect to WEHI-164 [11]: > 195
CC1CCC2C(C)C(N3CCN(C4OC(CO)C(O)C(O)C4O)CC3)OC3OC4(C)CCC1C32OO4 (centres unmarked) [Compound 20]	5.7 ± 2.9	1.7	596	4.4 ± 2.3	2.9	772	3400					
CC1CCC2C(C)C(N3CCN(C4OC(C)C(O)C(O)C4O)CC3)OC3OC4(C)CCC1C32OO4 (centres unmarked) [Compound 23]	0.74 ± 0.34	0.22	878	0.74 ± 0.3	0.49	878		1950 ± 480	314000 ± 85600	< 1	650 ± 60	IC50 [4, 16]: < 1 nM; IC50 [11]: 0.58 to 0.87 nM; selectivity index (SI) with respect to WEHI-164 [11]: > 195
CCN(CC)CCCC(C)Nc1ccnc2cc(Cl)ccc12 (centres unmarked) [Chloroquine, chloroquine, reference compound]												IC50 ([3]; Plasmodium falciparum, D10, 72 h): 23.4 ± 10.1 nM; IC50 ([4]; Plasmodium falciparum): 264 ± 143 nM; IC50 ([5]; Mus musculus, WEHI-164, 72 h): > 10000 nM
C[C@@H]1CC[C@H]2[C@@H](C)C(=O)O[C@@H]3O[C@@]4(C)CC[C@@H]1[C@]32OO4 [artemisinin 1, artemisinin]												IC50 [1]: 10.4 nM; IC50 [2]: 2.4 nM
CC1CCC2C(C)C(N3CCN(C4CC(O)C(O)C(CO)O4)CC3)OC3OC4(C)CCC1C32OO4 (centres unmarked) [Compound 22]		0.68	222		0.73	463				2.3 ± 1	510 ± 100	IC50 [4, 16]: 1.1 ± 0.4 nM
CC[C@@]1(O)C(=O)OCc2c1cc1n(c2=O)Cc2cc3ccccc3nc2-1 [Camptothecin, camptothecin, reference compound]								30 ± 10	2620 ± 840			SI with respect to the human dermal fibroblasts (HDF) ([6]; HDF versus K562): < 100

— article PMC6100044 (Molecules : A Journal of Synthetic Chemistry and Natural …, 2018)
